# Measurements reported in patent US20050220996A1, “Process for coating a pharmaceutical particle” (priority 2002, published 2005).
# Settings: magnetic stirrer, Tween 80 as wetting agent (FIG. 11)
# Text: The dissolution behavior of NaCl in water was studied by measuring conductivity as a function of time while stirring at a constant rate using a magnetic stirrer. To ensure complete wetting, Tween 80 was used as a wetting agent.
substance,measurement,value
Sodium chloride [Uncoated],conductivity profile (dissolution in water),instantaneous conductivity profile
